From patent US20210046071A1, “TETRACYCLIC COMPOUNDS AND THEIR SALTS, COMPOSITIONS, AND METHODS FOR THEIR USE” (Senhwa Biosciences, Inc., priority 2019, published 2021)

Key:
EOL-1 = test: Alamar Blue cell viability assay, EOL-1; type: cell-based; settings: Homo sapiens, EOL1; EOL-1, Leukemia
Procedure: (§1) The effect of Compound I on cell viability was assessed by Alamar Blue assay of metabolic activity in various cancer cell lines.

SR = test: Alamar Blue cell viability assay, SR; type: cell-based; settings: Homo sapiens, Leukemia
Procedure: as §1

SEM cells = test: Alamar Blue cell viability assay, SEM; type: cell-based; settings: Leukemia
Procedure: as §1

THP-1 = test: Alamar Blue cell viability assay, THP-1; type: cell-based; settings: Homo sapiens; THP-1, Leukemia
Procedure: as §1

NCI-H1299 = test: Alamar Blue cell viability assay, NCI-H1299; type: cell-based; settings: Homo sapiens; NCI-H1299, Lung
Procedure: as §1

A375 = test: Alamar Blue cell viability assay, A375; type: cell-based; settings: Homo sapiens, A-375; A375, Melanoma
Procedure: as §1

Jurkat = test: Alamar Blue cell viability assay, Jurkat; type: cell-based; settings: Homo sapiens, Leukemia
Procedure: as §1

Ramos = test: Alamar Blue cell viability assay, Ramos; type: cell-based; settings: Homo sapiens, Lymphoma
Procedure: as §1

NCI-H520 = test: Alamar Blue cell viability assay, NCI-H520; type: cell-based; settings: Homo sapiens; NCI-H520, Lung
Procedure: as §1

MIA PaCa-2 = test: Alamar Blue cell viability assay, MIA PaCa-2; type: cell-based; settings: Homo sapiens; MIA PaCa-2, Pancreatic
Procedure: as §1

SK-OV-3 = test: Alamar Blue cell viability assay, SK-OV-3; type: cell-based; settings: Homo sapiens; SK-OV-3, Ovarian
Procedure: as §1

HL60 = test: Alamar Blue cell viability assay, HL60; type: cell-based; settings: Homo sapiens, HL-60; HL60, Leukemia
Procedure: as §1

MDA-MB-231 = test: Alamar Blue cell viability assay, MDA-MB-231; type: cell-based; settings: Homo sapiens; MDA-MB-231, Breast
Procedure: as §1

BT-474 = test: Alamar Blue cell viability assay, BT-474; type: cell-based; settings: Homo sapiens; BT-474, Breast
Procedure: as §1

COLO-205 = test: Alamar Blue cell viability assay, COLO-205; type: cell-based; settings: Homo sapiens; COLO-205, Colon
Procedure: as §1

Hs 605.T = test: Alamar Blue cell viability assay, Hs 605.T; type: cell-based; settings: Breast
Procedure: as §1

MDA-MB-453 = test: Alamar Blue cell viability assay, MDA-MB-453; type: cell-based; settings: Homo sapiens; MDA-MB-453, Breast
Procedure: as §1

NK92mi = test: Alamar Blue cell viability assay, NK92mi; type: cell-based; settings: Lymphoma
Procedure: as §1

PC-3 = test: Alamar Blue cell viability assay, PC-3; type: cell-based; settings: Homo sapiens; PC-3, Prostate
Procedure: as §1

MDA-MB-361 = test: Alamar Blue cell viability assay, MDA-MB-361; type: cell-based; settings: Homo sapiens; MDA-MB-361, Breast
Procedure: as §1

A549 = test: Alamar Blue cell viability assay, A549; type: cell-based; settings: Homo sapiens; A549, Lung
Procedure: as §1

PANC-1 = test: Alamar Blue cell viability assay, PANC-1; type: cell-based; settings: Homo sapiens; PANC-1, Pancreatic
Procedure: as §1

LNCaP = test: Alamar Blue cell viability assay, LNCaP; type: cell-based; settings: Homo sapiens, Prostate
Procedure: as §1

CCD-1058Sk = test: Alamar Blue cell viability assay, CCD-1058Sk; type: cell-based; settings: Normal
Procedure: as §1

CCD-1068Sk = test: Alamar Blue cell viability assay, CCD-1068Sk; type: cell-based; settings: Normal
Procedure: as §1

BJ-hTERT = test: Alamar Blue cell viability assay, BJ-hTERT; type: cell-based; settings: Normal
Procedure: as §1

[1] = Dose escalation study in patients, toxicity and adverse events; type: in vivo, human
Procedure: (§2) Pharmacokinetic studies and dose escalation studies were conducted in adult patients with metastatic, recurrent, locally, advanced, or unresectable solid malignancy (patients with histologically and/or cytologically confirmed solid malignancy), who received prior anti-cancer treatment(s) until disease progression, at 10 different dose levels of Compound I. Groups 1-7 were administered intravenously on days 1 and 8 of a 4-week cycle at 50, 100, 150, 200, 250, 325, and 475 mg/m^2 (lyophilized formulation), respectively. Groups 8-10 were administered intravenously on days 1,8, and 15 of a 4-week cycle at 325, 475, and 650 mg/m^2 (lyophilized formulation), respectively. Each patient received each dose over 1 hour by IV infusion on days described above.

solid malignancy = test: Dose escalation study in patients, best response / tumor shrinkage; type: in vivo, human
Procedure: as §2
The duration on therapy at each dose level for evaluable patients is depicted in FIG. 8.
In the study described in Example 3, 18 patients were diagnosed with metastatic breast cancer. […] This study was conducted to evaluate predictive biomarkers of response to Compound I and to explore the relationship between germline HRD aberrations and outcomes of Compound I treatments.
In the study described in Example 3, 12 patients harbored BRCA1 or BRCA2 mutation. From the same group of 12 patients harboring BRCA1 or BRCA2 mutation, 8 patients had breast cancer (FIG. 5). Of the 8 patients, 6 patient harbored BRCA2 mutation and had breast cancer (FIG. 6). In FIGS. 4-6, each bar represents an individual in a treatment Group as indicated by the Group number corresponding to the treatment Groups in Example 3.

[2] = system: BRCA2 knockout tumor cells; test: BRCA2 knockout tumor xenograft model; type: in vivo; settings: compared with isogenic wild type control cells
[3] = system: multiple cancer cell lines; test: Alamar Blue cell viability assay, multiple cancer cell lines; type: cell-based; settings: Table 1
Procedure: as §1

normal cells = test: Alamar Blue cell viability assay, normal cells; type: cell-based; settings: compared with cancer cell lines
Procedure: as §1

[4] = of the 40 patients treated, 34 discontinued

EC50 (THP-1): 47 nM
EC50 (NCI-H1299): 55 nM
EC50 (A375): 58 nM
EC50 (Jurkat): 64 nM
EC50 (Ramos): 66 nM
EC50 (NCI-H520): 70 nM
EC50 (MIA PaCa-2): 74 nM
EC50 (SK-OV-3): 78 nM
EC50 (HL60): 83 nM
EC50 (MDA-MB-231): 83 nM
EC50 (BT-474): 86 nM
EC50 (COLO-205): 96 nM
EC50 (MDA-MB-453): 140 nM
EC50 (PC-3): 1100 nM
EC50 (MDA-MB-361): 2100 nM
EC50 (A549): 4900 nM
EC50 (PANC-1): 5000 nM
EC50 (LNCaP): 5500 nM
SMILES: Cc1cnc(CNC(=O)c2c(=O)c3ccc(N4CCCN(C)CC4)nc3n3c2sc2ccccc23)cn1 [Compound I, 2-(4-Methyl-[1,4]diazepan-1-yl)-5-oxo-5H-7-thia-1,11b-diaza-benzo[c]fluorene-6-carboxylic acid (5-methyl-pyrazin-2-ylmethyl)-amide]
EC50 (EOL-1): 3 nM
EC50 (SR): 5 nM
EC50 (SEM cells): 18 nM
EC50 (Hs 605.T): 116 nM
EC50 (NK92mi): 165 nM
EC50 (CCD-1058Sk): 4710 nM
EC50 (CCD-1068Sk): 5070 nM
EC50 (BJ-hTERT): 5170 nM
Serious adverse events (SAEs) considered related to Compound I ([1]; Groups 1-10): Three
Treatment-related AE: hand-foot syndrome ([1]; Groups 1-10): 23%
Treatment-related AE: headache ([1]; Groups 1-10): 10%
Treatment-related AE: mucositis ([1]; Groups 1-10): 15%
Treatment-related AE: nausea ([1]; Groups 1-10): 44%
Treatment-related AE: photosensitivity of the eyes ([1]; Groups 1-10): 21%
Treatment-related AE: photosensitivity of the skin ([1]; Groups 1-10): 59%
Treatment-related AE: rash ([1]; Groups 1-10): 10%
Dose level toxicity (DLT) ([1]; Groups 1-10, 50 to 650 mg/m^2 IV): No dose level toxicity (DLT) were observed
Treatment-related non-DLT grade 3 photosensitivity events ([1]; in Groups 1, 5, and 8-10, reversible): 5
Response of a patient who harbored a PALB2 mutation (solid malignancy; Group 10, 650 mg/m^2, CT scans, 6-month follow-up): partial response (PR)
Patients discontinued due to objective progressive disease (solid malignancy; [4]): 29
Patients discontinued due to symptomatic progression of disease (solid malignancy; [4]): 4
Patients with stable disease as best response for >4 cycles (solid malignancy; of the 40 patients treated, 2 with breast cancer, 4 germline BRCA2, 2 somatic BRCA1/2): 6 patients
Patients with confirmed partial response as best response (solid malignancy; of the 40 patients treated, 3 with breast cancer, 2 germline BRCA2, 1 germline BRCA2 VUS, germline PALB2): 4 patients
Outcome in 8 patients who had received prior PARP inhibitor therapy (solid malignancy; only 2 of them had BRCA2 mutations): all had early progression after ≤2 cycles
Dose at which patients with BRCA2 mutation responded, tumor shrinkage observed (solid malignancy; patients with BRCA2 mutation): greater than or equal to 150 mg/m^2
Activity in BRCA2 knockout tumor cells in a xenograft model [2]: wide therapeutic index of activity
Antiproliferative activity [3]: broad spectrum antiproliferative activity
Activity in normal cells (normal cells): significantly less active
